In patent publication EP0404671A1, “Thioformamide derivatives” (RHONE-POULENC SANTE, priority 1989, dated 1990):

Tests used:
Thoracic aorta = assay: Vaso-relaxant activity: relaxation of K+-induced contraction of rat thoracic aorta strips; design: species or system rats; details: rat thoracic aorta strips denuded of endothelium, contraction induced by 20mM K⁺, cumulative concentration; read-out: Vaso-relaxant EC₉₀
Procedure: The test methods used were adapted from those described by Winslow et al [Eur. J. Pharmacol., 131, 219-228 (1986)] and Karaki [J. Pharmacol Methods, 18, 1-21, (1987)] for differentiating vaso-relaxant activity.
Thoracic aorta was removed from rats and transverse strips, denuded of endothelium, were suspended in a bath containing Krebs solution. The tension was recorded and a contraction induced by addition of 20mM K⁺ (potassium ion) to the bathing solution. The test compound was added to the bath as a solution in increasing cumulative concentration. The concentration in the bathing solution of the test compound which reduced the K⁺-induced contraction was determined and expressed in nM as the effective concentration (EC₉₀)

mean blood pressure = assay: Hypotensive activity in the anaesthetised rat; format: in vivo; details: intravenous dose required to reduce the mean blood pressure
Procedure: The intravenous dose required to reduce the mean blood pressure in an anaesthetised rat was determined and expressed in µg/kg/min as the effective concentration (EC₃₀).

[1] = system: histamine-induced bronchospasm and blood pressure; assay: Broncho-relaxant activity in the anaesthetised guinea pig (method of Dixon and Brodie); format: in vivo; details: nebulised aerosol of 200µg/ml aqueous solution for 1 minute; for Broncho-relaxant % maximum bronchospasm: histamine-induced bronchospasm
Procedure: In in vivo tests in the anaesthetised guinea pig, performed according to the method of Dixon W.E. and Brodie T.G., J. Physiol 29, 97-173 (1903), the effect on histamine-induced bronchospasm and blood pressure was determined.
A nebulised aerosol generated from an aqueous solution , having a concentration of 200µg/ml was administered for 1 minute to the anaesthetised guinea pigs.

Compound | EC90 (Thoracic aorta) | Hypotensive EC₃₀ (mean blood pressure) | Broncho-relaxant % maximum bronchospasm [1] | Broncho-relaxant B.P. [1]
CNC(=S)[C@]1(c2cccnc2)CCCC/C1=N\OCc1c(F)c(F)c(F)c(F)c1F [Compound 1, (1S)-anti-N-methyl-2-(2,3,4,5,6-pentafluorobenzyloxyimino)-1-(pyrid-3-yl)cyclohexanecarbothioamide] | 1000 pM | 0.9 µg/kg/min | 28% | 40 mmHg
CNC(=S)[C@]1(c2cccnc2)CCCC/C1=N\OCc1ccc(F)c(F)c1 [Compound 2, (1S)-anti-N-methyl-2-(3,4-difluorobenzyloxyimino)-1-(pyrid-3-yl)cyclohexanecarbothioamide] | 300 pM | 0.5 µg/kg/min | 17% | 32 mmHg
